According to the supplement of paper PMC10307832:

Legend:
Assay in all cases: relative viability (nuclei count vs DMSO), 5 days (fraction); higher = more cells survive
LU99A = system: LU99A
Summary of the method: (§1)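 A single step with final 0.05% Triton X-100, 1% formaldehyde and 1 ug/ml Hoechst fixed the cells and stained nuclei 5 days after treatment. Lung cancer cell lines in 1536-well plates had been treated by pin tool the day after seeding with one drug alone or a fixed anchor-drug dose plus five library-drug doses (not always all listed) in √10 steps, and nuclei were counted on 4× images. Relative viability is the ratio of nuclei in treated wells to nuclei in vehicle wells, taken as the median of duplicate plates.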

NCI-H596 = system: NCI-H596
Summary of the method: as §1

LCLC-103H = system: LCLC-103H
Summary of the method: as §1

HCC-44 = system: HCC-44
Summary of the method: as §1

PC-3 [JPC-3] = system: PC-3 [JPC-3]
Summary of the method: as §1

201T = system: 201T
Summary of the method: as §1

NCI-H727 = system: NCI-H727
Summary of the method: as §1

NCI-H23 = system: NCI-H23
Summary of the method: as §1

LCLC-97TM1 = system: LCLC-97TM1
Summary of the method: as §1

NCI-H460 = system: NCI-H460
Summary of the method: as §1

A-427 = system: A-427
Summary of the method: as §1

NCI-H2228 = system: NCI-H2228
Summary of the method: as §1

H3255 = system: H3255
Summary of the method: as §1

LK-2 = system: LK-2
Summary of the method: as §1

NCI-H1793 = system: NCI-H1793
Summary of the method: as §1

NCI-H2347 = system: NCI-H2347
Summary of the method: as §1

NCI-H1563 = system: NCI-H1563
Summary of the method: as §1

PC-14 = system: PC-14
Summary of the method: as §1

COR-L23 = system: COR-L23
Summary of the method: as §1

LC-2-ad = system: LC-2-ad
Summary of the method: as §1

SW 1573 = system: SW 1573
Summary of the method: as §1

O=c1cc(N2CCOCC2)oc2c(-c3cccc4c3sc3ccccc34)cccc12 + Cc1nc(NC(=O)N2CCC[C@H]2C(N)=O)sc1-c1ccnc(C(C)(C)C(F)(F)F)c1 [Alpelisib] (partner 2 µM)
relative viability (LU99A; first compound 0.01 µM): 0.595
relative viability (LU99A; first compound 0.03162 µM): 0.532
relative viability (LU99A; first compound 0.1 µM): 0.521
relative viability (LU99A; first compound 0.3162 µM): 0.598
relative viability (LU99A; first compound 1 µM): 0.571
relative viability (NCI-H596; first compound 0.01 µM): 0.469
relative viability (NCI-H596; first compound 0.03162 µM): 0.506
relative viability (NCI-H596; first compound 0.1 µM): 0.451
relative viability (NCI-H596; first compound 0.3162 µM): 0.474
relative viability (NCI-H596; first compound 1 µM): 0.522
relative viability (LCLC-103H; first compound 0.01 µM): 0.904
relative viability (LCLC-103H; first compound 0.03162 µM): 0.924
relative viability (LCLC-103H; first compound 0.1 µM): 1.03
relative viability (LCLC-103H; first compound 0.3162 µM): 1.03
relative viability (LCLC-103H; first compound 1 µM): 0.93
relative viability (HCC-44; first compound 0.01 µM): 0.841
relative viability (HCC-44; first compound 0.03162 µM): 0.841
relative viability (HCC-44; first compound 0.1 µM): 0.826
relative viability (HCC-44; first compound 0.3162 µM): 0.708
relative viability (HCC-44; first compound 1 µM): 0.697
relative viability (PC-3 [JPC-3]; first compound 0.01 µM): 1.01
relative viability (PC-3 [JPC-3]; first compound 0.03162 µM): 1.05
relative viability (PC-3 [JPC-3]; first compound 0.1 µM): 1.02
relative viability (PC-3 [JPC-3]; first compound 0.3162 µM): 1.02
relative viability (PC-3 [JPC-3]; first compound 1 µM): 1.04
relative viability (201T; first compound 0.01 µM): 1
relative viability (201T; first compound 0.03162 µM): 0.994
relative viability (201T; first compound 0.1 µM): 1.07
relative viability (201T; first compound 0.3162 µM): 0.979
relative viability (201T; first compound 1 µM): 0.879
relative viability (NCI-H727; first compound 0.01 µM): 0.481
relative viability (NCI-H727; first compound 0.03162 µM): 0.591
relative viability (NCI-H727; first compound 0.1 µM): 0.493
relative viability (NCI-H727; first compound 0.3162 µM): 0.538
relative viability (NCI-H727; first compound 1 µM): 0.541
relative viability (NCI-H23; first compound 0.01 µM): 0.71
relative viability (NCI-H23; first compound 0.03162 µM): 0.662
relative viability (NCI-H23; first compound 0.3162 µM): 0.665
relative viability (NCI-H23; first compound 1 µM): 0.745
relative viability (LCLC-97TM1; first compound 0.01 µM): 0.287
relative viability (LCLC-97TM1; first compound 0.03162 µM): 0.269
relative viability (LCLC-97TM1; first compound 0.3162 µM): 0.201
relative viability (LCLC-97TM1; first compound 1 µM): 0.244
relative viability (NCI-H460; first compound 0.01 µM): 0.509
relative viability (NCI-H460; first compound 0.03162 µM): 0.502
relative viability (NCI-H460; first compound 0.1 µM): 0.495
relative viability (NCI-H460; first compound 0.3162 µM): 0.373
relative viability (NCI-H460; first compound 1 µM): 0.538
relative viability (A-427; first compound 0.01 µM): 1.11
relative viability (A-427; first compound 0.03162 µM): 1.12
relative viability (A-427; first compound 0.1 µM): 1.03
relative viability (A-427; first compound 0.3162 µM): 1.04
relative viability (A-427; first compound 1 µM): 1.09
relative viability (NCI-H2228; first compound 0.03162 µM): 0.928
relative viability (NCI-H2228; first compound 0.1 µM): 0.713
relative viability (NCI-H2228; first compound 0.3162 µM): 0.877
relative viability (NCI-H2228; first compound 1 µM): 0.481
relative viability (H3255; first compound 0.01 µM): 0.681
relative viability (H3255; first compound 0.03162 µM): 0.698
relative viability (H3255; first compound 0.1 µM): 0.784
relative viability (H3255; first compound 0.3162 µM): 0.685
relative viability (H3255; first compound 1 µM): 0.768
relative viability (LK-2; first compound 0.01 µM): 1.1
relative viability (LK-2; first compound 0.03162 µM): 1.01
relative viability (LK-2; first compound 0.1 µM): 1.14
relative viability (LK-2; first compound 0.3162 µM): 1.03
relative viability (LK-2; first compound 1 µM): 1.25
relative viability (NCI-H1793; first compound 0.01 µM): 0.607
relative viability (NCI-H1793; first compound 0.03162 µM): 0.866
relative viability (NCI-H1793; first compound 0.1 µM): 0.7
relative viability (NCI-H1793; first compound 0.3162 µM): 0.705
relative viability (NCI-H1793; first compound 1 µM): 0.484
relative viability (NCI-H2347; first compound 0.01 µM): 1.17
relative viability (NCI-H2347; first compound 0.03162 µM): 1.04
relative viability (NCI-H2347; first compound 0.1 µM): 1.04
relative viability (NCI-H2347; first compound 0.3162 µM): 1
relative viability (NCI-H2347; first compound 1 µM): 1.02
relative viability (NCI-H1563; first compound 0.01 µM): 0.917
relative viability (NCI-H1563; first compound 0.03162 µM): 0.858
relative viability (NCI-H1563; first compound 0.1 µM): 0.93
relative viability (NCI-H1563; first compound 0.3162 µM): 0.833
relative viability (NCI-H1563; first compound 1 µM): 0.844
relative viability (PC-14; first compound 0.01 µM): 0.987
relative viability (PC-14; first compound 0.03162 µM): 0.891
relative viability (PC-14; first compound 0.1 µM): 0.931
relative viability (PC-14; first compound 0.3162 µM): 1.04
relative viability (PC-14; first compound 1 µM): 0.978
relative viability (COR-L23; first compound 0.01 µM): 0.871
relative viability (COR-L23; first compound 0.03162 µM): 0.718
relative viability (COR-L23; first compound 0.1 µM): 0.922
relative viability (COR-L23; first compound 0.3162 µM): 0.795
relative viability (COR-L23; first compound 1 µM): 0.753
relative viability (LC-2-ad; first compound 0.01 µM): 0.91
relative viability (LC-2-ad; first compound 0.1 µM): 0.976
relative viability (LC-2-ad; first compound 0.3162 µM): 0.839
relative viability (LC-2-ad; first compound 1 µM): 0.906
relative viability (SW 1573; first compound 0.01 µM): 1.13
relative viability (SW 1573; first compound 0.03162 µM): 0.736
relative viability (SW 1573; first compound 0.1 µM): 0.868
relative viability (SW 1573; first compound 0.3162 µM): 0.735
relative viability (SW 1573; first compound 1 µM): 0.733
